The target of experiment [1] is human CB2 receptors (Homo sapiens (Human), UniProt P34972). In words: cAMP assay, CHO cells expressing human CB2 receptors. Type of experiment: cell-based. Particulars: CHO cells expressing human CB2, cAMP; read-out: human CB2 EC50. In short, it runs like this: (§1)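 CHO cells, KRB buffer + 1 mM IBMX, 30 min 30 °C preincubation; compound 30 min 30 °C; lysis + TR-FRET cAMP detection, 2 h RT; cAMP from standard curve (10 μM–0.13 nM); EC50.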
On the technique in general: cAMP levels reflect the balance of adenylyl cyclase and phosphodiesterase activity.

Experiment [2] concerns the target human CB1 receptors (Homo sapiens (Human), UniProt P21554). In words: cAMP assay, CHO cells expressing human CB1 receptors. It is filed as cell-based. Particulars: CHO cells expressing human CB1, cAMP; read-out: human CB1 EC50. The method, boiled down:
as §1

Where only a bound is given, the exact number is not on record here.

The results in this text go back to patent US9290451B2 (Hoffmann-La Roche Inc., priority 2011, dated 2016).

human CB2 receptors, sequence (P34972 whole entry): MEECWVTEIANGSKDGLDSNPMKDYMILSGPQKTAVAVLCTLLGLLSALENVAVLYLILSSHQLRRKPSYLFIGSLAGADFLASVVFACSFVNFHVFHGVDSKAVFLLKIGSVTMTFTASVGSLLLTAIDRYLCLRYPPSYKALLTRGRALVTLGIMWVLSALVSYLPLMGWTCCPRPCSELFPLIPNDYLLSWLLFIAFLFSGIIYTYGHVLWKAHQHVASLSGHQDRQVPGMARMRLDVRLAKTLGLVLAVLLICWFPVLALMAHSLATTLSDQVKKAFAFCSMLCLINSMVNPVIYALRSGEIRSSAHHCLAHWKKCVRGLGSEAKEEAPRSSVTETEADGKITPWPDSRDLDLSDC
human CB1 receptors, sequence (P21554 whole entry): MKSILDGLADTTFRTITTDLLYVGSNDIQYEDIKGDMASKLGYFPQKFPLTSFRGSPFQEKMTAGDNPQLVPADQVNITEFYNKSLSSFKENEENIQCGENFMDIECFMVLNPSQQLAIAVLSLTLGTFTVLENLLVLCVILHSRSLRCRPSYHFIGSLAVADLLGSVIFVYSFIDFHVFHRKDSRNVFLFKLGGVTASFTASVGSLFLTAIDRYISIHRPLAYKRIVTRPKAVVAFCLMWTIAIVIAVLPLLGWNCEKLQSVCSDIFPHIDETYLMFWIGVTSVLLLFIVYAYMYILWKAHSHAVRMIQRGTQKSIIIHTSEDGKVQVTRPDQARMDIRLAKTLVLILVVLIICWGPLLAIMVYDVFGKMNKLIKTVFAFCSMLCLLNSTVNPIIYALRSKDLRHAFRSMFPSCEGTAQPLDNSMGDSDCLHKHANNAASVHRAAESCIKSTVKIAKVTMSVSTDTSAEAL

As to `CNC(=O)[C@@H](NC(=O)c1ccc(C2CC2)c(OCC2CC2)n1)c1ccccc1` [Example 225, 5-Cyclopropyl-6-cyclopropylmethoxy-pyridine-2-carboxylic acid ((−)-methylcarbamoyl-phenyl-methyl)-amide], the values for the EC50 in experiment [1] and in experiment [2] were 48.4 nM and above 10000 nM, respectively.

As for `CN(C)C(=O)[C@@H](NC(=O)c1ccc(C2CC2)c(OCC2CC2)n1)c1ccccc1` [Example 226, 5-Cyclopropyl-6-cyclopropylmethoxy-pyridine-2-carboxylic acid ((+)-dimethylcarbamoyl-phenyl-methyl)-amide], the figures for the EC50 in experiment [1] and in experiment [2] were 19.9 nM and above 10000 nM, respectively.

Regarding `CN(C)C(=O)[C@H](NC(=O)c1ccc(C2CC2)c(OCC2CC2)n1)c1ccccc1` [Example 227, 5-Cyclopropyl-6-cyclopropylmethoxy-pyridine-2-carboxylic acid ((−)-dimethylcarbamoyl-phenyl-methyl)-amide], the figures for the EC50 in experiment [1] and in experiment [2] were 40.8 nM and above 10000 nM, respectively.

In the case of `CNC(=O)[C@H](CC(C)(C)C)NC(=O)c1ccc(C(F)(F)F)c(OCC2CC2)n1` [Example 228, 6-Cyclopropylmethoxy-5-trifluoromethyl-pyridine-2-carboxylic acid ((S)-3,3-dimethyl-1-methylcarbamoyl-butyl)-amide], the EC50 is 16.8 nM in experiment [1] and above 10000 nM in experiment [2].

`Cc1nc(C(NC(=O)c2ccc(C(F)(F)F)c(OCC3CC3)n2)C2CC2)no1` (centres unmarked) [Example 229, 6-Cyclopropylmethoxy-5-trifluoromethyl-pyridine-2-carboxylic acid [cyclopropyl-(5-methyl-[1,2,4]oxadiazol-3-yl)-methyl]-amide]: the EC50 in experiment [1] is 52.4 nM; in experiment [2], above 10000 nM.

With `CNC(=O)[C@H](CC(C)(C)C)NC(=O)c1ccc(C(F)(F)F)c(OCC2CCOCC2)n1` [Example 230, 6-(Tetrahydro-pyran-4-ylmethoxy)-5-trifluoromethyl-pyridine-2-carboxylic acid ((S)-3,3-dimethyl-1-methylcarbamoyl-butyl)-amide], the figures for the EC50 in experiment [1] and in experiment [2] were 29.4 nM and 1590 nM, respectively.

As for `CC(C)C[C@H](NC(=O)c1ccc(C2CC2)c(OCC2CC2)n1)C(=O)N(C)C` [Example 231, 5-Cyclopropyl-6-cyclopropylmethoxy-pyridine-2-carboxylic acid ((S)-1-dimethylcarbamoyl-3-methyl-butyl)-amide], the EC50 amounted to 1.4 nM in experiment [1] and 678 nM in experiment [2].

For the compound `CCC(CC)(NC(=O)c1ccc(C2CC2)c(OCC2CCCO2)n1)C(=O)OC` (centres unmarked) [Example 233, 2-{[5-Cyclopropyl-6-(tetrahydro-furan-2-ylmethoxy)-pyridine-2-carbonyl]-amino}-2-ethyl-butyric acid methyl ester], the EC50 was 0.1 nM in experiment [1] and 71 nM in experiment [2].

`CNC(=O)[C@H](CC(C)(C)C)NC(=O)c1ccc(N2CCC23COC3)c(OCC2CC2)n1` [Example 234, 6-Cyclopropylmethoxy-5-(6-oxa-1-aza-spiro[3.3]hept-1-yl)-pyridine-2-carboxylic acid ((S)-3,3-dimethyl-1-methylcarbamoyl-butyl)-amide]: the EC50 was 8.3 nM in experiment [1] and above 10000 nM in experiment [2].

In the case of `Cc1nc(C(C)(C)NC(=O)c2ccc(N3CCC34COC4)c(OCC3CC3)n2)no1` [Example 235, 6-Cyclopropylmethoxy-5-(6-oxa-1-aza-spiro[3.3]hept-1-yl)-pyridine-2-carboxylic acid [1-methyl-1-(5-methyl-[1,2,4]oxadiazol-3-yl)-ethyl]-amide], the EC50 was 41.3 nM in experiment [1] and above 10000 nM in experiment [2].

On to `Cc1nc(C(NC(=O)c2ccc(N3CCC34COC4)c(OCC3CC3)n2)C2CC2)no1` (centres unmarked) [Example 236, 6-Cyclopropylmethoxy-5-(6-oxa-1-aza-spiro[3.3]hept-1-yl)-pyridine-2-carboxylic acid [cyclopropyl-(5-methyl-[1,2,4]oxadiazol-3-yl)-methyl]-amide], for which the EC50 in experiment [1] was 36.5 nM; in experiment [2] it was above 10000 nM.

`O=C(N[C@H](c1cccnc1)C(F)(F)F)c1ccc(N2CC(F)(F)C2)c(OCC2CC2)n1` [Example 237, 6-Cyclopropylmethoxy-5-(3,3-difluoro-azetidin-1-yl)-pyridine-2-carboxylic acid ((R)-2,2,2-trifluoro-1-pyridin-3-yl-ethyl)-amide]: the EC50 in experiment [1] was 97.5 nM; in experiment [2], above 10000 nM.

Consider `CCC(CC)(NC(=O)c1ccc(C(F)(F)F)c(OCC2CCOCC2)n1)C(=O)OC` [Example 238, 2-Ethyl-2-{[6-(tetrahydro-pyran-4-ylmethoxy)-5-trifluoromethyl-pyridine-2-carbonyl]-amino}-butyric acid methyl ester], for which the figures for the EC50 in experiment [1] and in experiment [2] were 0.4 nM and 146 nM, respectively.

With `COC(=O)[C@@H](NC(=O)c1ccc(C2CC2)c(OCC2CC2)n1)C(C)(C)C` [Example 239, (S)-2-[(5-Cyclopropyl-6-cyclopropylmethoxy-pyridine-2-carbonyl)-amino]-3,3-dimethyl-butyric acid methyl ester], the figures for the EC50 in experiment [1] and in experiment [2] were 1.1 nM and 91.9 nM, respectively.

Regarding `O=C(N[C@@H](c1ccccn1)C(F)(F)F)c1ccc(C2CC2)c(OCC2CC2)n1` [Example 240, 5-Cyclopropyl-6-cyclopropylmethoxy-pyridine-2-carboxylic acid ((−)-2,2,2-trifluoro-1-pyridin-2-yl-ethyl)-amide], the values for the EC50 in experiment [1] and in experiment [2] were 66.1 nM and above 10000 nM, respectively.

Turning to `Cc1nc([C@@H](C)NC(=O)c2ccc(C3CC3)c(OCC3CC3)n2)no1` [Example 241, 5-Cyclopropyl-6-cyclopropylmethoxy-pyridine-2-carboxylic acid [(−)-1-(5-methyl-[1,2,4]oxadiazol-3-yl)-ethyl]-amide], the results for the EC50 in experiment [1] and in experiment [2] were 49.1 nM and above 10000 nM, respectively.

As to `Cc1nc([C@H](CC(C)C)NC(=O)c2ccc(C3CC3)c(OCC3CC3)n2)no1` [Example 242, 5-Cyclopropyl-6-cyclopropylmethoxy-pyridine-2-carboxylic acid [(+)-3-methyl-1-(5-methyl-[1,2,4]oxadiazol-3-yl)-butyl]-amide], the EC50 was 1.2 nM in experiment [1] and above 10000 nM in experiment [2].

For `Cc1nc([C@@H](CC(C)C)NC(=O)c2ccc(C3CC3)c(OCC3CC3)n2)no1` [Example 243, 5-Cyclopropyl-6-cyclopropylmethoxy-pyridine-2-carboxylic acid [(−)-3-methyl-1-(5-methyl-[1,2,4]oxadiazol-3-yl)-butyl]-amide], the EC50 in experiment [1] amounted to 22.1 nM; in experiment [2] it was 830 nM.

Take `CC[C@H](NC(=O)c1ccc(C2CC2)c(OCC2CC2)n1)c1noc(C)n1` [Example 244, 5-Cyclopropyl-6-cyclopropylmethoxy-pyridine-2-carboxylic acid [(+)-1-(5-methyl-[1,2,4]oxadiazol-3-yl)-propyl]-amide]: the results for the EC50 in experiment [1] and in experiment [2] were 14.1 nM and above 10000 nM, respectively.

For `CC[C@@H](NC(=O)c1ccc(C2CC2)c(OCC2CC2)n1)c1noc(C)n1` [Example 245, 5-Cyclopropyl-6-cyclopropylmethoxy-pyridine-2-carboxylic acid [(−)-1-(5-methyl-[1,2,4]oxadiazol-3-yl)-propyl]-amide], the EC50 was 20.5 nM in experiment [1] and above 10000 nM in experiment [2].

Consider `C[C@@H](C#N)NC(=O)c1ccc(C2CC2)c(OCC2CC2)n1` [Example 246, 5-Cyclopropyl-6-cyclopropylmethoxy-pyridine-2-carboxylic acid ((−)-cyano-methyl-methyl)-amide], for which the EC50 in experiment [1] turned out to be 215 nM; in experiment [2], 2470 nM.

Turning to `CC(C)C[C@H](C#N)NC(=O)c1ccc(C2CC2)c(OCC2CC2)n1` [Example 247, 5-Cyclopropyl-6-cyclopropylmethoxy-pyridine-2-carboxylic acid ((−)-1-cyano-3-methyl-butyl)-amide], the EC50 is 5.6 nM in experiment [1] and above 10000 nM in experiment [2].

For the compound `N#C[C@H](NC(=O)c1ccc(C2CC2)c(OCC2CC2)n1)C1CC1` [Example 248, 5-Cyclopropyl-6-cyclopropylmethoxy-pyridine-2-carboxylic acid ((+)-cyano-cyclopropyl-methyl)-amide], the results for the EC50 in experiment [1] and in experiment [2] were 51 nM and above 10000 nM, respectively.

In the case of `CCC(CC)(NC(=O)c1ccc(C(F)(F)F)c(OCC2CC2)n1)C(=O)OC` [Example 249, 2-[(6-Cyclopropylmethoxy-5-trifluoromethyl-pyridine-2-carbonyl)-amino]-2-ethyl-butyric acid methyl ester], the EC50 in experiment [1] is 2.2 nM; in experiment [2] it was above 10000 nM.

Turning to `CCC(CC)(NC(=O)c1ccc(C2CC2)c(OCC2CCCO2)n1)C(=O)NC` (centres unmarked) [Example 250, 5-Cyclopropyl-6-(tetrahydro-furan-2-ylmethoxy)-pyridine-2-carboxylic acid (1-ethyl-1-methylcarbamoyl-propyl)-amide], the EC50 was 9.5 nM in experiment [1] and above 10000 nM in experiment [2].

As for `CCC(CC)(NC(=O)c1ccc(C2CC2)c(OCC2CC2)n1)C(=O)OC` [Example 251, 2-[(5-Cyclopropyl-6-cyclopropylmethoxy-pyridine-2-carbonyl)-amino]-2-ethyl-butyric acid methyl ester], the concentration for a half-maximal effect (EC50) in experiment [1] amounted to 1.4 nM; in experiment [2], 90.6 nM.

`CCC(CC)(NC(=O)c1ccc(C(F)(F)F)c(OCC2CC2)n1)C(=O)O` [Example 252, 2-[(6-Cyclopropylmethoxy-5-trifluoromethyl-pyridine-2-carbonyl)-amino]-2-ethyl-butyric acid]: the values for the EC50 in experiment [1] and in experiment [2] were 552 nM and above 10000 nM, respectively.

On to `CCC(CC)(NC(=O)c1ccc(C(F)(F)F)c(OCC2CCOCC2)n1)C(=O)NC` [Example 253, 6-(Tetrahydro-pyran-4-ylmethoxy)-5-trifluoromethyl-pyridine-2-carboxylic acid (1-ethyl-1-methylcarbamoyl-propyl)-amide], for which the EC50 was 14.3 nM in experiment [1] and above 10000 nM in experiment [2].

The EC50 is the concentration giving half of the maximal effect.
